{
  "source": "patent EP0341019A2",
  "about": "“Polyether antibiotic” (priority 1988, dated 1989)",
  "key": {"[1]": {"test_system": "Eimeria acervulina Strain 59 And E. tenella Strain 155", "assay": "anticoccidial feed test in infected chickens, ionophore-sensitive strains", "type": "in vivo"}, "[2]": {"test_system": "Pseudomonas aeruginosa PS72", "type": "cell-based", "settings": "PS72, 24 h"}, "[3]": {"test_system": "Bacteroides vulgatis 1211", "type": "cell-based", "settings": "Bacteroides, 1211, 24 h"}, "[4]": {"test_system": "Peptococcus asaccharolyticus 1302", "type": "cell-based", "settings": "Peptoniphilus asaccharolyticus, 1302, 24 h"}, "[5]": {"test_system": "Pseudomonas aeruginosa PS18", "type": "cell-based", "settings": "PS18, 24 h"}, "[6]": {"test_system": "Bacteroides fragilis 111", "type": "cell-based", "settings": "Bacteroides fragilis, 111, 24 h"}, "[7]": {"test_system": "Pseudomonas aeruginosa X239", "type": "cell-based", "settings": "X239, 24 h"}},
  "data": [
    {"smiles": "CC[C@@H](O)[C@]1(C)C[C@H](C)[C@@](O)([C@H]2C[C@H](C)[C@H]([C@]3(C)C[C@@H](O[C@H]4CC[C@H](OC)[C@@H](C)O4)[C@H]([C@]4(C)CC[C@@]5(O[C@H]([C@@H](C)[C@@H](OC)[C@H](C)C(=O)O)[C@H](C)[C@@H](OC)[C@H]5C)O4)O3)O2)O1", "note": "[Example A82810]", "values": [
      {"measurement": "TOTAL LESION SCORE", "setting": "[1]; 0.5 ppm", "result": 12.1},
      {"measurement": "WEIGHT GAIN, PERCENT OF CONTROL", "setting": "[1]; 0.5 ppm", "result": 60, "unit": "% OF CONTROL"},
      {"measurement": "TOTAL LESION SCORE", "setting": "[1]; 1 ppm", "result": 10.7},
      {"measurement": "WEIGHT GAIN, PERCENT OF CONTROL", "setting": "[1]; 1 ppm", "result": 81, "unit": "% OF CONTROL"},
      {"measurement": "AVERAGE CECAL LESION SCORES", "setting": "[1]; 1.25 ppm", "result": 3.2},
      {"measurement": "AVERAGE INTESTINAL LESION SCORES", "setting": "[1]; 1.25 ppm", "result": 6.0},
      {"measurement": "WEIGHT GAIN, PERCENT OF CONTROL", "setting": "[1]; 1.25 ppm", "result": 87, "unit": "% OF CONTROL"},
      {"measurement": "AVERAGE CECAL LESION SCORES", "setting": "[1]; 1.5 ppm", "result": 2.6},
      {"measurement": "AVERAGE INTESTINAL LESION SCORES", "setting": "[1]; 1.5 ppm", "result": 3.6},
      {"measurement": "AVERAGE CECAL LESION SCORES", "setting": "[1]; 1.75 ppm", "result": 2.0},
      {"measurement": "AVERAGE INTESTINAL LESION SCORES", "setting": "[1]; 1.75 ppm", "result": 2.3},
      {"measurement": "WEIGHT GAIN, PERCENT OF CONTROL", "setting": "[1]; 1.75 ppm", "result": 82, "unit": "% OF CONTROL"},
      {"measurement": "MIC", "setting": "[2]", "result": 0.25, "unit": "µg/mL"},
      {"measurement": "MIC", "setting": "[3]", "result": 4, "unit": "µg/mL"},
      {"measurement": "MIC", "setting": "[4]", "result": "≤ 0.25", "unit": "µg/mL"},
      {"measurement": "MIC", "setting": "[5]", "result": "> 128", "unit": "µg/mL"},
      {"measurement": "MIC", "setting": "[6]", "result": 8, "unit": "µg/mL"},
      {"measurement": "MIC", "setting": "[7]", "result": 0.25, "unit": "µg/mL"}
    ]}
  ]
}
